Patent US9801832B2, “Pharmaceutical composition having synergistic action of direct catalase inhibitors and modulators of no metabolism or of extracellular superoxide anion production which lead to catalase destruction” (Universitaetsklinikum Freiburg, priority 2012, dated 2017)

Experiments:
[1] = test system: MKN-45 gastric carcinoma cells; assay: Induction of apoptosis in MKN-45 gastric carcinoma cells (percentages of apoptotic cells); format: cell-based, human; settings: for induction of apoptosis: 12 500 MKN-45 cells in 100 μl, 4-6.5 hours at 37° C.
Description: 12 500 MKN-45 cells in 100 μl (duplicate batches) were treated with the given concentrations of salicylic acid or remained free from salicylic acid. After 10 minutes the given concentrations of cyanidine were added.
12 500 MKN-45 cells in 100 μl (duplicate batches) were treated with 0.1 μg/ml salicylic acid or remained free from salicylic acid (control). […] After 6.5 hours the percentages of apoptotic cells were determined in duplicate batches.
12 500 MKN-45 cells in 100 μl (duplicate batches) either received no additive (control), 2 mM of the singlet oxygen scavenger histidine or 25 μM Caspase-8 inhibitor. […] After another 15 minutes cyanidine was added in the given concentrations. After 6.5 hours of incubation at 37° C. the percentages of apoptotic cells were determined.
12 500 MKN-45 cells in 100 μl (duplicate batches) either received no additive (control), 2 mM of the singlet oxygen scavenger histidine or 25 μM Caspase-8 inhibitor. […] After 6.5 hours incubation at 37° C. the percentage of apoptotic cells was determined. […]
12 500 MKN-45 cells in 100 μl medium were incubated with increasing concentrations of the given active ingredients, in the presence or absence of 0.1 μg/ml salicylic acid for 6 hours and then, the percentages of the apoptotic cells were determined (repeated determination).

[2] = test system: thrombocytes; settings: cited from earlier work
[3] = test system: tumor cells; settings: cited from earlier work
[4] = test system: Gumbus lymphoma cells; assay: Induction of apoptosis in Gumbus lymphoma cells (percentages of apoptotic cells); format: cell-based, human
Description: 12 500 MKN-45 gastric carcinoma cells (A) or 25 000 Gumbus lymphoma cells (B) in 100 μl complete medium each either remained untreated (control) or received 2 mM histidine (singlet oxygen scavenger), 50 mM taurine (HOCl scavenger), or 2.4 mM L-NAME (NOS inhibitor). In Experiment A, additionally 10 mM mannitol (hydroxyl radical scavenger), 150 μM ABH (peroxidase inhibitor), 100 U/ml MnSOD (superoxide anion scavenger) and 25 μM FeTPPS (peroxynitrite decomposer) were used. Subsequently, the given concentrations of salicylic acid were added. After 5 hours (A) and 4 hours, respectively, of incubation at 37° C. the percentages of apoptotic cells were determined in duplicate batches according to the classical apoptosis features nuclear condensation, nuclear fragmentation, and membrane blebbing. Here, at least 200 cells were evaluated pre batch. […] Inhibitors: singlet oxygen scavenger histidine 2 mM; HOCl scavenger taurine 50 mM, NOS inhibitor L-NAME 2.4 mM, peroxidase inhibitor ABH 150 μM.

[5] = molecular target: T1, tumor cell catalase (Homo sapiens, UniProt P04040); assay: Catalase inhibition/inactivation in MKN-45 cells by challenge with exogenous peroxynitrite, NO donor or glucose oxidase; format: cell-based; set-up: endogenous in cells; host or cells: MKN-45 gastric carcinoma cells; settings: 200 μM peroxynitrite
T1 sequence (P04040 2-527 limits assumed): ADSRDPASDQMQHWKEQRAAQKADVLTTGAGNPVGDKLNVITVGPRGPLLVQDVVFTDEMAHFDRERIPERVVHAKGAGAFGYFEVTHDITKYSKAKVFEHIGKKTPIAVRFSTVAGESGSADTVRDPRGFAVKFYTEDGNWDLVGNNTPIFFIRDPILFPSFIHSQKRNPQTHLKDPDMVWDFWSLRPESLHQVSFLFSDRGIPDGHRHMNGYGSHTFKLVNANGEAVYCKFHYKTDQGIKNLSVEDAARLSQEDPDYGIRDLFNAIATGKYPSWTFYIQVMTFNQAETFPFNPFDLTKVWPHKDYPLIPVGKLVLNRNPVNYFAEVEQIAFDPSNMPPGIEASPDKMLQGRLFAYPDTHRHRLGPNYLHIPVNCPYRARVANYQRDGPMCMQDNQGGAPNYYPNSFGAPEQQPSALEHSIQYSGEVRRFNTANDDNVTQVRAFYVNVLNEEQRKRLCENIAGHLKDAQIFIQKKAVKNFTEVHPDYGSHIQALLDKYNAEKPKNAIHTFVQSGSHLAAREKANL
Description: Direct catalase inhibition with relevance to the induction of apoptosis in tumor cells can be determined by pre-incubating tumor cells at first in the presence of the singlet oxygen scavenger histidine (2 mM) with the substance to be tested in increasing concentration (between 10 and 30 minutes at 37° C.) and subsequently adding peroxynitrite in the concentration range between 10 and 200 μM. The tumor cells are protected from the apoptosis-triggering effect of peroxynitrite by their membranous catalase. An inhibition of the catalase partially or completely cancels this protection and in the presence of peroxynitrite leads to the induction of apoptosis. The presence of 2 mM histidine ensures that the measured induction of apoptosis is not a singlet oxygen-mediated inactivation of the catalase by destruction of its active center. Alternatively, instead of addition of histidine inhibition of the NADPH oxidase by 100 μM AEBSF may take place. With prevented superoxide anion production also no singlet oxygen formation in the test system is possible.
4000 MKN-45 cells per 100 μl in […] were treated with increasing concentrations of monoclonal antibodies against catalase “Anti-KAT” or Anti-EGFR. After 15 minutes either 200 μM peroxynitrite (“PON”), 0.5 mM DEA-NONOate (rapidly decomposing NO donor), or 2 mU/ml glucose oxidase (GOX) that continuously generates hydrogen peroxide were added. After another two hours at 37° C. the percentages of apoptotic cells were determined in duplicate batches.
The principle of identification is based on the fact that tumor cells (here MKN-45 gastric carcinoma cells) are protected from the apoptosis-triggering effect of exogenously added peroxynitrite by their membranous catalase. Addition of catalase inhibitors sensitizes the cells to the effect of exogenous peroxynitrite.
The experiment was performed in analogy to that described in FIG. 9 except that instead of Anti-KAT a monoclonal antibody against SOD was used. The cells were tested in two different densities, namely 4000 and 12 500 cells per 100 μl. The challenge to test the activity of catalase was carried out with 200 μM peroxynitrite, or 0.5 mM DEA NONOate or 2 mU/ml GOX.
Subsequently, 200 μM or no peroxynitrite was added. After 1.5 hours the percentages of apoptotic cells were determined in duplicate batches.
Subsequently, 200 μM or no peroxynitrite was added. After 1 hour the percentages of apoptotic cells were determined in duplicate batches.
12 500 MKN-45 cells in 100 μl medium received 100 μM AEBSF or no additive. After 15 minutes the given concentrations of cyanidine were added and the batches were incubated for 15 minutes at 37° C. Subsequently, 200 μM peroxynitrite (PON) were added or the batches were not treated with peroxynitrite (control). After 1 hour the percentages of apoptotic cells were determined in duplicate batches.
12 500 MKN-45 cells received no addition (control), or 2 mM histidine, or 100 μM AEBSF or 2.4 mM L-NAME immediately before the addition of the given concentrations of salicylic acid (“0 min”) or 20 minutes after addition of salicyl. 20 minutes after the addition of salicylic acid 200 μM peroxynitrite (PON) were added to all batches except the control batches. After another 2 hours the percentages of apoptotic cells were determined in duplicates.

[6] = test system: tumor cells; settings: cited from earlier work; remark: listed apart in the source

catalase inactivation, alone at the chosen concentration ([5]; 6.25 ng/ml alone, MKN-45 (FIG. 21)) | Compound | synergistic interaction with salicylic acid in the induction of apoptosis ([1]; 0.1 μg/ml salicylic acid, MKN-45, 6 hours (FIGS. 22-25)) | induction of apoptosis ([1]; substance alone) | minor increase of the superoxide anion production ([2]; 6.25 and 12.5 μg/ml) | production of superoxide anions, hydrogen peroxide, and singlet oxygen [2] | superoxide anion production [3] | synergism with cyanidine in the induction of apoptosis [1] | synergism with taxol in the induction of apoptosis [1] | induction of apoptosis, substance alone at the concentration of the combination ([1]; 0.15 ng/ml cyanidine alone, 0.08 μg/ml salicylic acid alone, MKN-45 (FIG. 16)) | induction of apoptosis, alone at 0.1 μg/ml ([1]; 0.1 μg/ml, MKN-45 (FIG. 18)) | ROS signal path of the induced apoptosis (inhibitor profile) ([1]; MKN-45, L-NAME, FeTPPS, taurine, ABH) | concentration up to which almost no effect on apoptosis is shown ([1]; administered alone, MKN-45, 6 hours (FIG. 16)) | dependence of the induction of apoptosis on singlet oxygen ([1]; substance alone, 2 mM histidine (singlet oxygen scavenger), MKN-45) | dependence of the induction of apoptosis on singlet oxygen ([4]; 2 mM histidine (singlet oxygen scavenger), Gumbus cells) | ROS signal path of the induced apoptosis (inhibitor profile) ([4]; Gumbus cells, L-NAME, taurine, ABH) | induction of apoptosis ([4]; substance alone, 25 000 Gumbus lymphoma cells in 100 μl, 4 hours at 37° C.) | catalase inhibition / sensitization to peroxynitrite with inhibited superoxide anion synthesis ([5]; 100 μM AEBSF, MKN-45) | inhibition of tumor cell catalase (sensitization to exogenous peroxynitrite) ([5]; MKN-45) | requirement of singlet oxygen, superoxide anions and NO for catalase inhibition/inactivation ([5]; 2 mM histidine, 100 μM AEBSF or 2.4 mM L-NAME, MKN-45 (FIGS. 14, 15)) | sensitivity of tumor cells for ROS signaling-mediated apoptosis (autocrine and by interaction with non-transformed cells) [6]
 | Oc1ccc(C=Cc2cc(O)cc(O)c2)cc1 [resveratrol] | synergistically reacts | still does not lead to a significant induction of apoptosis | statistically insignificant | leads to a reduction of the production of superoxide anions, hydrogen peroxide, and singlet oxygen | leads to a dramatic increase of the superoxide anion production |  |  |  |  |  |  |  |  |  |  |  |  |  | 
almost no catalase inactivation | O=C(O)c1ccccc1O [salicylic acid] |  | induces ROS-dependent induction of apoptosis |  |  |  | Synergism is achieved | Synergism is achieved | remained ineffective | ineffective in itself | In the low concentration range of the salicylic acid preferably the NO/peroxynitrite signal path runs, with higher concentrations the HOCl path predominates | up to 0.32 μg/ml | does not depend on singlet oxygen | does not depend on singlet oxygen | In the low concentration range of the salicylic acid preferably the NO/peroxynitrite signal path runs, with higher concentrations the HOCl path predominates | induces ROS-dependent induction of apoptosis | independent of the superoxide anion synthesis | inhibits the catalase of the tumor cells | independent of superoxide anions, NO and singlet oxygen | 
 | Nc1nc[nH]n1 [3-aminotriazole] |  |  |  |  |  |  |  |  |  |  |  |  |  |  |  |  |  |  | become sensitive for these two processes
